# Results taken from patent US4427587A, “Total synthesis of antitumor antibiotics BBM-2040A and BBM-2040B” (Bristol-Myers Company, priority 1982, dated 1984).
# Key:
# [1] = system: lymphocytic leukemia P388; experiment: antitumor activity against lymphocytic leukemia P388 in mice (Table 6); type: in vivo, mice (BDF1 strain); details: qd 1→9
# Procedure: The antitumor activity of BBM-2040A and B was determined in mice (BDF1 strain) against lymphocytic leukemia P388. Each mouse was inoculated intraperitoneally with 10^6 cells of tumor. Graded doses of test compounds were administered to mice intraperitoneally 24 hours after the tumor implantation. The treatments were given once daily for 9 days (qd 1→9 schedule). Neothramycin was comparatively tested as a reference compound.
# *ratio of median survival time of test and control animals
# **circle indicates significant antitumor effect.
# [2] = system: Streptococcus pyogenes PCI 1001; experiment: MIC, serial two-fold agar dilution method; type: cell-based; details: Streptococcus pyogenes, PCI1001
# Procedure: (§1) The minimum inhibitory concentration (MIC) of BBM-2040 was determined for a variety of gram-positive, gram-negative and acid-fast bacteria by the serial two-fold agar dilution method. Nutrient agar medium was used for gram-positive and gram-negative organisms and No. 1001 medium (3% glycerol, 0.3% sodium L-glutamate, 0.2% peptone, 0.31% Na2 HPO4, 0.1% KH2 PO4, 0.005% ammonium citrate, 0.001% MgSO4 and 1.5% agar) for acid-fast organisms.
# Mycobacterium phlei D88 = experiment: MIC, serial two-fold agar dilution method; type: cell-based; details: Mycolicibacterium phlei, D88
# Procedure: as §1
# [3] = system: Klebsiella pneumoniae D-11; experiment: MIC, serial two-fold agar dilution method; type: cell-based; details: Klebsiella pneumoniae, D11
# Procedure: as §1
# [4] = system: Staphylococcus aureus Smith; experiment: MIC, serial two-fold agar dilution method; type: cell-based; details: Staphylococcus aureus
# Procedure: as §1
# [5] = system: Bacillus subtilis PCI 219; experiment: MIC, serial two-fold agar dilution method; type: cell-based; details: Bacillus subtilis, PCI219
# Procedure: as §1
# [6] = system: Staphylococcus aureus FDA 209P; experiment: MIC, serial two-fold agar dilution method; type: cell-based; details: Staphylococcus aureus, FDA209P
# Procedure: as §1
# [7] = system: Pseudomonas aeruginosa A9930; experiment: MIC, serial two-fold agar dilution method; type: cell-based
# Procedure: as §1
# [8] = system: Mycobacterium smegmatis 607; experiment: MIC, serial two-fold agar dilution method; type: cell-based; details: Mycolicibacterium smegmatis, 607
# Procedure: as §1
# Escherichia coli Juhl = experiment: MIC, serial two-fold agar dilution method; type: cell-based; details: Escherichia coli
# Procedure: as §1
# Micrococcus flavus D12 = experiment: MIC, serial two-fold agar dilution method; type: cell-based
# Procedure: as §1
# Proteus vulgaris A9436 = experiment: MIC, serial two-fold agar dilution method; type: cell-based
# Procedure: as §1
# [9] = system: Streptococcus pyogenes A20201; experiment: MIC, serial two-fold agar dilution method; type: cell-based
# Procedure: as §1
# Escherichia coli NIHJ = experiment: MIC, serial two-fold agar dilution method; type: cell-based; details: Escherichia coli
# Procedure: as §1
# lymphatic leukemia P388 = experiment: antitumor activity against P388 leukemia in mice, second experiment (Table 7); type: in vivo, male BDF1 mice; details: QD 1→9; for Effect MST % T/C: ≥ 125 significant; for antitumor activity in second P388 experiment (in words): i.p., epimer: 1 mg/kg/day, the highest dose tested
# Procedure: In this experiment lymphatic leukemia P388 was implanted intraperitoneally into male BDF1 mice at an inoculum size of 10^6 cells per mouse. Test compounds were dissolved in 0.9% saline containing 10% dimethylsulfoxide. Graded doses of test compounds were administered to mice intraperitoneally 24 hours after the tumor implantation, and the treatment was continued once daily for 9 days.
# Tumor inoculum: 10^6 ascites cells implanted i.p.
# Treatment: QD 1→9, i.p.
# Evaluation: MST = median survival time
# Effect: % T/C = (MST treated/MST control) × 100
# Criteria: % T/C ≥ 125 considered as significant antitumor activity
# [10] = intraperitoneal; reported value; cited from earlier work
compound,measurement,setting,value
COc1cc2c(cc1O)N=CC1CCC(O)N1C2=O (stereo not drawn) [Neothramycin],T/C (%) in MST,[1]; 0.03 mg/kg/day ip,96%
same,T/C (%) in MST,[1]; 0.1 mg/kg/day ip,104%
same,T/C (%) in MST,[1]; 0.3 mg/kg/day ip,112%
same,antitumor activity in P388 experiment (comparison),[1]; ip,similarly active
same,MIC,[2],100 µg/mL
same,MIC,Mycobacterium phlei D88,> 100 µg/mL
same,MIC,[3],100 µg/mL
same,MIC,[4],> 100 µg/mL
same,MIC,[5],50 µg/mL
same,MIC,[6],> 100 µg/mL
same,MIC,[7],> 100 µg/mL
same,MIC,[8],> 100 µg/mL
same,MIC,Escherichia coli Juhl,> 100 µg/mL
same,MIC,Micrococcus flavus D12,100 µg/mL
same,MIC,Proteus vulgaris A9436,100 µg/mL
same,MIC,[9],50 µg/mL
same,MIC,Escherichia coli NIHJ,50 µg/mL
same,Average weight change,lymphatic leukemia P388; 0.1 mg/kg/day i.p.,+1.0 g
same,MST,lymphatic leukemia P388; 0.1 mg/kg/day i.p.,13.0 days
same,Survivors Day 5,lymphatic leukemia P388; 0.1 mg/kg/day i.p.,6/6
same,Survivors Day 22,lymphatic leukemia P388; 0.1 mg/kg/day i.p.,0/6
same,Effect MST % T/C,lymphatic leukemia P388; 0.1 mg/kg/day i.p.,108%
same,Average weight change,lymphatic leukemia P388; 0.3 mg/kg/day i.p.,+0.8 g
same,MST,lymphatic leukemia P388; 0.3 mg/kg/day i.p.,14.5 days
same,Survivors Day 5,lymphatic leukemia P388; 0.3 mg/kg/day i.p.,6/6
same,Survivors Day 22,lymphatic leukemia P388; 0.3 mg/kg/day i.p.,0/6
same,Effect MST % T/C,lymphatic leukemia P388; 0.3 mg/kg/day i.p.,121%
same,Average weight change,lymphatic leukemia P388; 1 mg/kg/day i.p.,+0.5 g
same,MST,lymphatic leukemia P388; 1 mg/kg/day i.p.,17.0 days
same,Survivors Day 5,lymphatic leukemia P388; 1 mg/kg/day i.p.,6/6
same,Survivors Day 22,lymphatic leukemia P388; 1 mg/kg/day i.p.,0/6
same,Effect MST % T/C,lymphatic leukemia P388; 1 mg/kg/day i.p.,142%
same,Average weight change,lymphatic leukemia P388; 3 mg/kg/day i.p.,0.0 g
same,MST,lymphatic leukemia P388; 3 mg/kg/day i.p.,17.5 days
same,Survivors Day 5,lymphatic leukemia P388; 3 mg/kg/day i.p.,6/6
same,Survivors Day 22,lymphatic leukemia P388; 3 mg/kg/day i.p.,0/6
same,Effect MST % T/C,lymphatic leukemia P388; 3 mg/kg/day i.p.,146%
same,antitumor activity in second P388 experiment (in words),lymphatic leukemia P388,similarly active
same,LD50,[10],20 to 30 mg/kg
COc1cc2c(cc1O)N[C@H](OC)[C@@H]1C[C@@H](O)CN1C2=O [2β-Hydroxy epimer of BBM-2040 A],Average weight change,lymphatic leukemia P388; 0.03 mg/kg/day i.p.,+1.0 g
same,MST,lymphatic leukemia P388; 0.03 mg/kg/day i.p.,10.5 days
same,Survivors Day 5,lymphatic leukemia P388; 0.03 mg/kg/day i.p.,6/6
same,Survivors Day 22,lymphatic leukemia P388; 0.03 mg/kg/day i.p.,0/6
same,Effect MST % T/C,lymphatic leukemia P388; 0.03 mg/kg/day i.p.,88%
same,Average weight change,lymphatic leukemia P388; 0.1 mg/kg/day i.p.,+1.3 g
same,MST,lymphatic leukemia P388; 0.1 mg/kg/day i.p.,11.0 days
same,Survivors Day 5,lymphatic leukemia P388; 0.1 mg/kg/day i.p.,6/6
same,Survivors Day 22,lymphatic leukemia P388; 0.1 mg/kg/day i.p.,0/6
same,Effect MST % T/C,lymphatic leukemia P388; 0.1 mg/kg/day i.p.,92%
same,Average weight change,lymphatic leukemia P388; 0.3 mg/kg/day i.p.,+1.8 g
same,MST,lymphatic leukemia P388; 0.3 mg/kg/day i.p.,11.0 days
same,Survivors Day 5,lymphatic leukemia P388; 0.3 mg/kg/day i.p.,6/6
same,Survivors Day 22,lymphatic leukemia P388; 0.3 mg/kg/day i.p.,0/6
same,Effect MST % T/C,lymphatic leukemia P388; 0.3 mg/kg/day i.p.,92%
same,Average weight change,lymphatic leukemia P388; 1 mg/kg/day i.p.,+1.0 g
same,MST,lymphatic leukemia P388; 1 mg/kg/day i.p.,12.0 days
same,Survivors Day 5,lymphatic leukemia P388; 1 mg/kg/day i.p.,6/6
same,Survivors Day 22,lymphatic leukemia P388; 1 mg/kg/day i.p.,0/6
same,Effect MST % T/C,lymphatic leukemia P388; 1 mg/kg/day i.p.,100%
same,antitumor activity in second P388 experiment (in words),lymphatic leukemia P388,inactive
